One block for each compound: values may come before it. Calls of active or inactive are those of the source. The rule behind the calls is not given here.
Columns and labels:
[1] = target: Sodium channel protein type 1 subunit alpha (Homo sapiens) (UniProt P35498); experiment: Modulator activity at human Nav1.1 expressed in human Flp-In-T-REx-293 cells assessed as half activation potential at 100 uM measured at holding potential of -120 mV by whole cell patch clamp electrophysiology assay; type: cell-based
[2] = target: Sodium channel protein type 1 subunit alpha (Homo sapiens) (UniProt P35498); experiment: Modulator activity at human Nav1.1 expressed in human Flp-In-T-REx-293 cells assessed as change in half activation potential at 100 uM measured at holding potential of -120 mV by whole cell patch clamp electrophysiology assay; type: cell-based
[3] = target: Sodium channel protein type 1 subunit alpha (Homo sapiens) (UniProt P35498); experiment: Modulator activity at human Nav1.1 expressed in human Flp-In-T-REx-293 cells assessed as half inactivation potential at 100 uM by whole cell patch clamp electrophysiology assay; type: cell-based
[4] = target: Sodium channel protein type 1 subunit alpha (Homo sapiens) (UniProt P35498); experiment: Modulator activity at human Nav1.1 expressed in human Flp-In-T-REx-293 cells assessed as change in half inactivation potential at 100 uM by whole cell patch clamp electrophysiology assay; type: cell-based
Mus musculus [5] = experiment: Anti-seizure activity against PTZ-induced ICR mouse seizure model assessed as decrease in seizure severity stage at 50 mg/kg, IG incubated for 1 hrs followed by PTZ stimulation and measured <30 mins; type: functional, organism-based; conditions: time < 1.5 hrs
Mus musculus [6] = experiment: Anti-seizure activity against PTZ-induced ICR mouse seizure model assessed as increase in average latency to stage 2 at 50 mg/kg, IG incubated for 1 hrs followed by PTZ stimulation and measured <30 mins; type: functional, organism-based; conditions: time < 1.5 hrs
Mus musculus [7] = experiment: Anti-seizure activity against PTZ-induced ICR mouse seizure model assessed as increase in average latency to stage 6 at 50 mg/kg, IG incubated for 1 hrs followed by PTZ stimulation and measured <30 mins; type: functional, organism-based; conditions: time < 1.5 hrs
Mus musculus [8] = experiment: Anti-seizure activity against PTZ-induced ICR mouse seizure model assessed as increase in survival rate at 50 mg/kg, IG incubated for 1 hrs followed by PTZ stimulation and measured <30 mins; type: functional, organism-based; conditions: time < 1.5 hrs
Mus musculus [9] = experiment: Anti-seizure activity against ICR mouse […] assessed as decrease in seizure stage at 50 mg/kg, IG incubated for 1 hrs followed by PTZ stimulation; type: functional, organism-based
Mus musculus [10] = experiment: Anti-seizure activity against ICR mouse […] assessed as increase in latency duration in stage 3 at 50 mg/kg, IG incubated for 1 hrs followed by PTZ stimulation; type: functional, organism-based
Mus musculus [11] = experiment: Anti-seizure activity against ICR mouse […] assessed as decrease in tonic clonic seizure duration at 50 mg/kg, IG incubated for 1 hrs followed by PTZ stimulation; type: functional, organism-based
Mus musculus [12] = experiment: Anti-seizure activity against ICR mouse […] assessed as increase in survival rate at 50 mg/kg, IG incubated for 1 hrs followed by PTZ stimulation; type: functional, organism-based
[13] = AUClast in Sprague-Dawley rat plasma at 10 mg/kg, iv; type: ADME, organism-based; parameters: dose 10 mg/kg, route iv; conditions: in vivo
[14] = Cmax in Sprague-Dawley rat at 10 mg/kg, iv; type: ADME, organism-based; parameters: dose 10 mg/kg, route iv; conditions: in vivo
[15] = Tmax in Sprague-Dawley rat at 10 mg/kg, iv; type: ADME, organism-based; conditions: in vivo
[16] = Half life in Sprague-Dawley rat at 10 mg/kg, iv; type: ADME, organism-based; conditions: in vivo
[17] = Apparent volume of distribution during terminal phase in Sprague-Dawley rat at 10 mg/kg, iv; type: ADME, organism-based; conditions: in vivo
[18] = Apparent clearance during terminal phase in Sprague-Dawley rat at 10 mg/kg, iv; type: ADME, organism-based; conditions: in vivo
[19] = AUClast in Sprague-Dawley rat plasma at 50 mg/kg, po; type: ADME, organism-based; parameters: dose 50 mg/kg, route po; conditions: in vivo
[20] = Cmax in Sprague-Dawley rat at 50 mg/kg, po; type: ADME, organism-based; parameters: dose 50 mg/kg, route po; conditions: in vivo
[21] = Tmax in Sprague-Dawley rat at 50 mg/kg, po; type: ADME, organism-based; conditions: in vivo
[22] = Half life in Sprague-Dawley rat at 50 mg/kg, po; type: ADME, organism-based; conditions: in vivo
[23] = Apparent volume of distribution during terminal phase in Sprague-Dawley rat at 50 mg/kg, po; type: ADME, organism-based; conditions: in vivo, read-out: Vz/F
[24] = Apparent clearance during terminal phase in Sprague-Dawley rat at 50 mg/kg, po; type: ADME, organism-based; conditions: in vivo
[25] = Oral bioavailability in Sprague-Dawley rat at 50 mg/kg; type: ADME, organism-based; conditions: in vivo

V1/2 [1]: -31.9 mV
delta(V1/2) [2]: -2.65 mV
V1/2 [3]: -61.5 mV
delta(V1/2) [4]: -0.74 mV
SMILES: CN(C)/N=N/c1c(C(N)=O)nnn1CCc1c(F)cccc1F

V1/2 [1]: -46.1 mV
delta(V1/2) [2]: -1.81 mV
V1/2 [3]: -69.8 mV
delta(V1/2) [4]: -10.1 mV
AUClast [13]: 3190 ng·h/mL
Cmax [14]: 5203.99 ng/mL
Tmax [15]: 10.2 min
t1/2 [16]: 11.4 min
Vz/F [17]: 0.93 L/kg
CLz/F [18]: 54.2 mL/min/kg
AUClast [19]: 5460 ng·h/mL
Cmax [20]: 4496.74 ng/mL
Tmax [21]: 10.2 min
t1/2 [22]: 63 min
Vd/F [23]: 13.6 L/kg
CLz/F [24]: 169 mL/min/kg
bioavailability [25]: 34.3%
SMILES: CN(C)/N=N/c1c(C(N)=O)nnn1Cc1c(F)cccc1F
Activity (Mus musculus [5]): Active
Activity (Mus musculus [6]): Active
Activity (Mus musculus [7]): Active
Activity (Mus musculus [8]): Active
Activity (Mus musculus [9]): Active
Activity (Mus musculus [10]): Active
Activity (Mus musculus [11]): Active
Activity (Mus musculus [12]): Active

V1/2 [1]: -35.7 mV
delta(V1/2) [2]: -1.56 mV
V1/2 [3]: -71.3 mV
delta(V1/2) [4]: -4.72 mV
SMILES: COC(=O)CCCNC(=O)c1nnn(Cc2c(F)cccc2F)c1/N=N/N(C)C

V1/2 [1]: -36.5 mV
delta(V1/2) [2]: -1.64 mV
V1/2 [3]: -73 mV
delta(V1/2) [4]: -5.55 mV
SMILES: CN(C)/N=N/c1c(C(=O)Nc2ccccc2)nnn1Cc1c(F)cccc1F

V1/2 [1]: -30.9 mV
delta(V1/2) [2]: -3.11 mV
V1/2 [3]: -66.6 mV
delta(V1/2) [4]: -4.73 mV
SMILES: CN(C)/N=N/c1c(C(N)=O)nnn1Cc1ccccc1F

V1/2 [1]: -36.2 mV
delta(V1/2) [2]: 1.95 mV
V1/2 [3]: -78.8 mV
delta(V1/2) [4]: -11.3 mV
SMILES: CN(C)/N=N/c1c(C(=O)NCc2ccccc2)nnn1Cc1c(F)cccc1F
Activity (Mus musculus [5]): Active
Activity (Mus musculus [6]): Active
Activity (Mus musculus [7]): Active
Activity (Mus musculus [8]): Active
Activity (Mus musculus [9]): inactive

V1/2 [1]: -43.2 mV
delta(V1/2) [2]: -1.5 mV
V1/2 [3]: -64.2 mV
delta(V1/2) [4]: -3.79 mV
SMILES: CN(C)/N=N/c1c(C(N)=O)nnn1Cc1ccccc1

V1/2 [1]: -39.5 mV
delta(V1/2) [2]: -4.56 mV
V1/2 [3]: -69.6 mV
delta(V1/2) [4]: -6.54 mV
SMILES: CNC(=O)c1nnn(Cc2c(F)cccc2F)c1/N=N/N(C)C

V1/2 [1]: -39 mV
delta(V1/2) [2]: -0.99 mV
V1/2 [3]: -62 mV
delta(V1/2) [4]: -4 mV
SMILES: CN(C)/N=N/c1c(C(N)=O)nnn1Cc1ccc(F)cc1

V1/2 [1]: -36.5 mV
delta(V1/2) [2]: -4.15 mV
V1/2 [3]: -63.1 mV
delta(V1/2) [4]: -4.36 mV
SMILES: CN(C)/N=N/c1c(C(N)=O)nnn1Cc1ccc(F)cc1F

V1/2 [1]: -35.6 mV
delta(V1/2) [2]: -1.09 mV
V1/2 [3]: -64.3 mV
delta(V1/2) [4]: -4.24 mV
SMILES: CN(C)/N=N/c1c(C(N)=O)nnn1-c1c(F)cccc1F

V1/2 [1]: -42.7 mV
delta(V1/2) [2]: -1.7 mV
V1/2 [3]: -62.9 mV
delta(V1/2) [4]: -3.13 mV
SMILES: CN(C)/N=N/c1c(C(N)=O)nnn1Cc1ccccc1Cl

V1/2 [1]: -32.4 mV
delta(V1/2) [2]: -2.85 mV
V1/2 [3]: -64.2 mV
delta(V1/2) [4]: -3.87 mV
SMILES: CN(C)/N=N/c1c(C(=O)NC2CC2)nnn1Cc1c(F)cccc1F

V1/2 [1]: -41.3 mV
delta(V1/2) [2]: -7.39 mV
V1/2 [3]: -66.7 mV
delta(V1/2) [4]: -7.01 mV
SMILES: NC(=O)c1cn(Cc2c(F)cccc2F)nn1

V1/2 [1]: -45.4 mV
delta(V1/2) [2]: -1.05 mV
V1/2 [3]: -66.2 mV
delta(V1/2) [4]: -3.93 mV
SMILES: Cc1ccc(Cn2nnc(C(N)=O)c2/N=N/N(C)C)cc1
